Drawing on US10316056B2, “Chemical compounds and use thereof for improving muscular quality” (BIOPHYTIS, priority 2014, dated 2019), this text covers mrna remaining for 17 compounds.

In the assay the test system is myostatin gene expression in C2C12 cells. The assay is described as follows: Inhibition of myostatin expression in C2C12 cells (qPCR). The note with it: Mus musculus, percentage myostatin gene expression in cells in contact with the compounds related to control cells, C2C12, 6 h. It is filed as cell-based. On the procedure:
After several experiments in which the C2C12 cells differentiated into myotubes were incubated in the presence of IGF-1 or 20E for 2 h 30 or 6 h, two screening tests were developed. Thus, the phosphorylation of the S6 protein kinase and the expression of the myostatin gene were studied in order to determine their modulation by a growth hormone or an ecdysone and to characterize these modulations from a statistical point of view. The C2C12 myoblast cells (ATCC CRL-1772) are seeded into 24-well plates at a density of 30 000 cells per well and cultured in a DMEM medium containing glucose in a proportion of 4.5 g/l and supplemented with fetal calf serum (10%) and with antibiotics (penicillin and streptomycin). Forty-eight hours later, the myoblasts are induced to differentiate by partial serum depletion (2% instead of 10%) for 5 days. The cells are then placed in a medium which is glucose-depleted (DMEM containing 1 g/l of glucose) and serum-free in the presence of the test molecules or of the references (100 ng/ml IGF-1 or 10 μ[…]) for 6 h. At the end of the experiment, the messenger RNAs (mRNAs) are extracted using the conventional methodology based on phenol and chloroform. Briefly, the cells are lysed in a Trizol solution (Sigma T9424) containing a strong acid and phenol. The mRNAs are separated from the proteins by addition of chloroform and then centrifugation. They are then precipitated from isopropanol and then suspended at a concentration of 1 μg/μl in an […] ultrapure water. 1 μg of mRNA is then converted by reverse transcription into complementary DNA by the AMV enzyme in the presence of a primer and of a mixture of nucleotides according to the protocol given by the supplier (Applied Biosystems 4368814). […] The qPCRs are carried out on a 7900HT Fast real-Time PCR detection system (Applied Biosystems). The programming conditions are standard and consist of 1 cycle at 95° C. for 15 min, followed by 40 cycles at 95° C. for 15 s and at 60° C. for 1 min and the program ends with a melt curve step between 60° C. and 95° C. […] Fluorescent probes bind to the double-stranded DNA and are fluorescent only once bound to the DNA. A fluorescence threshold is established by the machine's program. When the amount of DNA allows the fluorescent probe to exceed this threshold, a PCR cycle number, called “Ct” for “Cycle Threshold”, is obtained. It is this value which forms the basis of the calculations to quantify the DNA relatively. A ratio R is established between the amount of starting DNA of a sample and that of a control, which has not undergone treatment (i.e. […] R=2^-ΔΔCt).
Regarding `COC(CN(C)C(C)[C@H]1CC[C@@]2(O)C3=CC(=O)[C@@H]4C[C@@H](O)[C@@H](O)C[C@]4(C)C3CC[C@]12C)OC` (stereo partly drawn) [Compound 79, (2S,3R,5R,10R,13R,14S,17S)-17-[1-(2,2-dimethoxyethyl(methyl)amino)ethyl]-2,3,14-trihydroxy-10,13-dimethyl-2,3,4,5,9,11,12,15,16,17-decahydro-1H-cyclopenta[a]phenanthren-6-one], the mrna remaining at 10 µM is below 70%. For `CCO/N=C(/C)[C@H]1CC[C@@]2(O)C3=CC(=O)[C@@H]4C[C@@H](O)[C@@H](O)C[C@]4(C)C3CC[C@]12C` (stereo partly drawn) [Compound 23, (2S,3R,5R,10R,13R,14S,17S)-17-(N-ethoxy-C-methylcarbonimidoyl)-2,3,14-trihydroxy-10,13-dimethyl-2,3,4,5,9,11,12,15,16,17-decahydro-1H-cyclopenta[a]phenanthren-6-one] the value was 71 to 85%; for `C[C@]12C[C@H](O)[C@H](O)C[C@H]1C(=O)C=C1C2CC[C@]2(C)[C@@H](C(O)CN3CCC(CCO)CC3)CC[C@@]12O` (stereo partly drawn) [Compound 99, (2S,3R,5R,10R,13R,14S,17S)-2,3,14-trihydroxy-17-[1-hydroxy-2-[4-(2-hydroxyethyl)-1-piperidyl]ethyl]-10,13-dimethyl-2,3,4,5,9,11,12,15,16,17-decahydro-1H-cyclopenta[a]phenanthren-6-one], below 70%; for `CO/N=C1\C=C2C(CC[C@]3(C)[C@@H](C(C)N(CC(F)F)C(=O)c4ccco4)CC[C@@]23O)[C@@]2(C)C[C@H](O)[C@H](O)C[C@@H]12` (stereo partly drawn) [Compound 37, N-(2,2-difluoroethyl)-N-[1-[(2S,3R,5R,6E,10R,13R,14S,17S)-2,3,14-trihydroxy-6-methoxyimino-10,13-dimethyl-2,3,4,5,9,11,12,15,16,17-decahydro-1H-cyclopenta[a]phenanthren-17-yl]ethyl]furan-2-carboxamide], 71 to 85%. For `COCCN(C(=O)c1cccs1)C(C)[C@H]1CC[C@@]2(O)C3=CC(=O)[C@@H]4C[C@@H](O)[C@@H](O)C[C@]4(C)C3CC[C@]12C` (stereo partly drawn) [Compound 53, N-(2-methoxyethyl)-N-[1-[(2S,3R,5R,10R,13R,14S,17S)-2,3,14-trihydroxy-10,13-dimethyl-6-oxo-2,3,4,5,9,11,12,15,16,17-decahydro-1H-cyclopenta[a]phenanthren-17-yl]ethyl]thiophene-2-carboxamide] the value was below 70%; for `CC([C@H]1CC[C@@]2(O)C3=CC(=O)[C@@H]4C[C@@H](O)[C@@H](O)C[C@]4(C)C3CC[C@]12C)N(C(=O)c1ccc(C#N)cc1)C1CC1` (stereo partly drawn) [Compound 56, 4-cyano-N-cyclopropyl-N-[1-[(2S,3R,5R,10R,13R,14S,17S)-2,3,14-trihydroxy-10,13-dimethyl-6-oxo-2,3,4,5,9,11,12,15,16,17-decahydro-1H-cyclopenta[a]phenanthren-17-yl]ethyl]benzamide], 71 to 85%; for `COCCO/N=C(/C)[C@H]1CC[C@@]2(O)C3=CC(=O)[C@@H]4C[C@@H](O)[C@@H](O)C[C@]4(C)C3CC[C@]12C` (stereo partly drawn) [Compound 29, (2S,3R,5R,10R,13R,14S,17S)-2,3,14-trihydroxy-17-(N-(2-methoxyethoxy)-C-methylcarbonimidoyl)-10,13-dimethyl-2,3,4,5,9,11,12,15,16,17-decahydro-1H-cyclopenta[a]phenanthren-6-one], below 70%.

Consider `C/C(=N/OCCOc1ccccc1)[C@H]1CC[C@@]2(O)C3=CC(=O)[C@@H]4C[C@@H](O)[C@@H](O)C[C@]4(C)C3CC[C@]12C` (stereo partly drawn) [Compound 27, (2S,3R,5R,10R,13R,14S,17S)-2,3,14-trihydroxy-10,13-dimethyl-17-(C-methyl-N-(2-phenoxyethoxy)carbonimidoyl)-2,3,4,5,9,11,12,15,16,17-decahydro-1H-cyclopenta[a]phenanthren-6-one], for which the mrna remaining at 10 µM was below 70%. For `CO/N=C(/C)[C@H]1CC[C@@]2(O)C3=CC(=O)[C@@H]4C[C@@H](O)[C@@H](O)C[C@]4(C)C3CC[C@]12C` (stereo partly drawn) [Compound 25, (2S,3R,5R,10R,13R,14S,17S)-17-(N-methoxy-C-methylcarbonimidoyl)-2,3,14-trihydroxy-10,13-dimethyl-2,3,4,5,9,11,12,15,16,17-decahydro-1H-cyclopenta[a]phenanthren-6-one] the value was below 70%; for `CO/N=C1/C=C2C3=CC[C@H](C(C)=NO)[C@@]3(C)CCC2[C@@]2(C)C[C@H](O)[C@H](O)C[C@@H]12` (stereo partly drawn) [Compound 7, 1-[(2S,3R,5R,6Z,10R,13R,17S)-2,3-dihydroxy-6-methoxyimino-10,13-dimethyl-1,2,3,4,5,9,11,12,16,17-decahydrocyclopenta[a]phenanthren-17-yl]ethanone oxime], below 70%; for `CO/N=C1\C=C2C(CC[C@]3(C)[C@@H](C(C)N(CC(OC)OC)C(=O)C(C)C)CC[C@@]23O)[C@@]2(C)C[C@H](O)[C@H](O)C[C@@H]12` (stereo partly drawn) [Compound 38, N-(2,2-dimethoxyethyl)-2-methyl-N-[1-[(2S,3R,5R,6E,10R,13R,14S,17S)-2,3,14-trihydroxy-6-methoxyimino-10,13-dimethyl-2,3,4,5,9,11,12,15,16,17-decahydro-1H-cyclopenta[a]phenanthren-17-yl]ethyl]propanamide], below 70%. In turn, `COCCN(C(=O)N1CCOCC1)C(C)[C@H]1CC[C@@]2(O)C3=CC(=O)[C@@H]4C[C@@H](O)[C@@H](O)C[C@]4(C)C3CC[C@]12C` (stereo partly drawn) [Compound 57, N-(2-methoxyethyl)-N-[1-[(2S,3R,5R,10R,13R,14S,17S)-2,3,14-trihydroxy-10,13-dimethyl-6-oxo-2,3,4,5,9,11,12,15,16,17-decahydro-1H-cyclopenta[a]phenanthren-17-yl]ethyl]morpholine-4-carboxamide] had a mrna remaining at 10 µM of 71 to 85%. To `COCCN(C(=O)C(C)C)C(C)[C@H]1CC[C@@]2(O)C3=CC(=O)[C@@H]4C[C@@H](O)[C@@H](O)C[C@]4(C)C3CC[C@]12C` (stereo partly drawn) [Compound 75, N-(2-methoxyethyl)-2-methyl-N-[1-[(2S,3R,5R,10R,13R,14S,17S)-2,3,14-trihydroxy-10,13-dimethyl-6-oxo-2,3,4,5,9,11,12,15,16,17-decahydro-1H-cyclopenta[a]phenanthren-17-yl]ethyl]propanamide] belongs below 70%; to `CC(C)=CCON=C(C)[C@H]1CC[C@@]2(O)C3=C/C(=N\O)[C@@H]4C[C@@H](O)[C@@H](O)C[C@]4(C)C3CC[C@]12C` (stereo partly drawn) [Compound 21, (2S,3R,5R,10R,13R,14S,17S)-2,3,14-trihydroxy-10,13-dimethyl-17-(C-methyl-N-(3-methylbut-2-enoxy)carbonimidoyl)-2,3,4,5,9,11,12,15,16,17-decahydro-1H-cyclopenta[a]phenanthren-6-one oxime], below 70%. To `COC(CN(C)CC(=O)[C@H]1CC[C@@]2(O)C3=CC(=O)[C@@H]4C[C@@H](O)[C@@H](O)C[C@]4(C)C3CC[C@]12C)OC` (stereo partly drawn) [Compound 85, (2S,3R,5R,10R,13R,14S,17S)-17-[2-(2,2-dimethoxyethyl(methyl)amino)acetyl]-2,3,14-trihydroxy-10,13-dimethyl-2,3,4,5,9,11,12,15,16,17-decahydro-1H-cyclopenta[a]phenanthren-6-one] belongs 71 to 85%. To `COC(CN(C(=O)C1CC1)C(C)[C@H]1CC[C@@]2(O)C3=CC(=O)[C@@H]4C[C@@H](O)[C@@H](O)C[C@]4(C)C3CC[C@]12C)OC` (stereo partly drawn) [Compound 65, N-(2,2-dimethoxyethyl)-N-[1-[(2S,3R,5R,10R,13R,14S,17S)-2,3,14-trihydroxy-10,13-dimethyl-6-oxo-2,3,4,5,9,11,12,15,16,17-decahydro-1H-cyclopenta[a]phenanthren-17-yl]ethyl]cyclopropanecarboxamide] belongs below 70%. `COC(CN(C(=O)c1cccs1)C(C)[C@H]1CC[C@@]2(O)C3=CC(=O)[C@@H]4C[C@@H](O)[C@@H](O)C[C@]4(C)C3CC[C@]12C)OC` (stereo partly drawn) [Compound 64, N-(2,2-dimethoxyethyl)-N-[1-[(2S,3R,5R,10R,13R,14S,17S)-2,3,14-trihydroxy-10,13-dimethyl-6-oxo-2,3,4,5,9,11,12,15,16,17-decahydro-1H-cyclopenta[a]phenanthren-17-yl]ethyl]thiophene-2-carboxamide] registered a mrna remaining at 10 µM below 70%.
